Values quoted from earlier work in patent CN101647784A, “卡马西平缓释片及其制备方法” (Beijing Kexin Bicheng Medicine Technology Development Co Ltd, priority 2008, dated 2010).

Conditions: early epilepsy and single seizures; 406 subjects, immediate versus deferred treatment

NC(=O)N1c2ccccc2C=Cc2ccccc21 [卡马西平]
显著影响: effect on time to 1-year remission | effect on time to 2-year remission | effect on time to first seizure
